Test results from ChEMBL document CHEMBL3885861, “Open TG-GATES”.

Species on record: Rattus norvegicus
Test: Open TG-GATES - Regimen: Daily Repeat
Assay type: toxicity, organism-based, Sprague-Dawley
Parameters: regimen Daily Repeat, gender Male, age 6 weeks
Conditions: in vivo, po, route gavage; for gamma-GTP / ALT / AST / CRE / Ca / DBIL / GLC / IP / K / LDH / Na / PL / RALB / TBIL / TC / TG / TP / BUN / Cl: tissue Plasma; for Bas / Eos / Fbg / Ht / Lym / MCHC / MCV / Mono / Neu / PT / Plat / RBC / Ret / WBC: tissue Blood; for KIDNEY_L / KIDNEY_R / KIDNEY_TOTAL: tissue Kidney
[1] = 80 mg/kg, 72 h, dose level Low, time 3 day
[2] = 80 mg/kg, […], dose level Low, time 7 day
[3] = 80 mg/kg, […], dose level Low, time 14 day
[4] = 80 mg/kg, […], dose level Low, time 28 day

## COc1ccc([C@@H]2Sc3ccccc3N(CCN(C)C)C(=O)[C@@H]2OC(C)=O)cc1 [DILTIAZEM]
0 mg/kg, […], dose level Control, time 28 day
  gamma-GTP: 1.2 IU/L
[1]
  TERMINAL_BW: 214.1 g
  Bas: 0%
  Eos: 0.8%
  Fbg: 270 mg/dL
  Ht: 39.8%
  Lym: 72.2%
  MCHC: 32.8%
  MCV: 64.2 fL
  Mono: 2.8%
  Neu: 23.2%
  PT: 13.8 s
  Plat: 118.7 x10_4/uL
  RBC: 621.2 x10_4/ul
  Ret: 8.5%
  KIDNEY_L: 0.9 g
  KIDNEY_R: 1 g
  KIDNEY_TOTAL: 1.9 g
  ALT: 48.6 IU/L
  AST: 68.2 IU/L
  CRE: 0.2 mg/dL
  Ca: 11.1 mg/dL
  DBIL: 0.02 mg/dL
  GLC: 178 mg/dL
  IP: 7.4 mg/dL
  K: 4 meq/L
  LDH: 78.4 IU/L
  Na: 143.8 meq/L
  PL: 161.2 mg/dL
  RALB: 2.6 g/dL
  TBIL: 0.026 mg/dL
  TC: 86.4 mg/dL
  TG: 128.8 mg/dL
  TP: 5.5 g/dL
  gamma-GTP: 1.2 IU/L
[2]
  TERMINAL_BW: 255.5 g
  Bas: 0%
  Eos: 1%
  Fbg: 295 mg/dL
  Ht: 41.2%
  Lym: 77.4%
  MCHC: 33.2%
  MCV: 65.1 fL
  Mono: 2.6%
  Neu: 17.8%
  PT: 14.2 s
  Plat: 132.9 x10_4/uL
  RBC: 632 x10_4/ul
  Ret: 7.5%
  WBC: 77.3 x10_2/uL
  KIDNEY_L: 1.1 g
  KIDNEY_R: 1.1 g
  KIDNEY_TOTAL: 2.2 g
  ALT: 43.2 IU/L
  AST: 68.6 IU/L
  BUN: 15.4 mg/dL
  CRE: 0.2 mg/dL
  Ca: 11.2 mg/dL
  DBIL: 0.014 mg/dL
  GLC: 192.4 mg/dL
  IP: 8.3 mg/dL
  K: 4 meq/L
  LDH: 83.4 IU/L
  Na: 143.6 meq/L
  PL: 153.2 mg/dL
  RALB: 2.8 g/dL
  TBIL: 0.02 mg/dL
  TC: 81.2 mg/dL
  TG: 109.2 mg/dL
  TP: 5.8 g/dL
  gamma-GTP: 1 IU/L
[3]
  TERMINAL_BW: 315.7 g
  Bas: 0.4%
  Eos: 0.6%
  Fbg: 311.2 mg/dL
  Ht: 44.4%
  Lym: 80.2%
  MCHC: 32.9%
  MCV: 63.6 fL
  Mono: 2.4%
  PT: 13.8 s
  Plat: 139.6 x10_4/uL
  RBC: 698.8 x10_4/ul
  Ret: 5%
  WBC: 116 x10_2/uL
  KIDNEY_L: 1.3 g
  KIDNEY_R: 1.3 g
  KIDNEY_TOTAL: 2.6 g
  ALT: 45 IU/L
  AST: 70.4 IU/L
  BUN: 16.2 mg/dL
  CRE: 0.2 mg/dL
  Ca: 10.9 mg/dL
  Cl: 105.8 meq/L
  DBIL: 0.016 mg/dL
  GLC: 184.8 mg/dL
  IP: 7 mg/dL
  K: 4.2 meq/L
  LDH: 99.2 IU/L
  Na: 144.6 meq/L
  PL: 171.8 mg/dL
  RALB: 2.8 g/dL
  TBIL: 0.018 mg/dL
  TC: 81.8 mg/dL
  TG: 169.6 mg/dL
  TP: 6 g/dL
  gamma-GTP: 1.2 IU/L
[4]
  TERMINAL_BW: 415.5 g
  Bas: 0.2%
  Eos: 1.2%
  Fbg: 313.4 mg/dL
  Ht: 46.4%
  Lym: 77.4%
  MCHC: 33.9%
  MCV: 57.8 fL
  Mono: 2.2%
  Neu: 18.4%
  PT: 14 s
  Plat: 111.5 x10_4/uL
  RBC: 803.2 x10_4/ul
  Ret: 2.5%
  KIDNEY_L: 1.4 g
  KIDNEY_R: 1.4 g
  KIDNEY_TOTAL: 2.8 g
  ALT: 40.8 IU/L
  AST: 70.4 IU/L
  BUN: 17.6 mg/dL
  CRE: 0.2 mg/dL
  Ca: 11.1 mg/dL
  Cl: 108.4 meq/L
  DBIL: 0.016 mg/dL
  GLC: 202.8 mg/dL
  IP: 6.6 mg/dL
  K: 3.8 meq/L
  LDH: 65 IU/L
  Na: 146.6 meq/L
  PL: 161.8 mg/dL
  RALB: 2.9 g/dL
  TBIL: 0.016 mg/dL
  TC: 79.2 mg/dL
  TG: 147.4 mg/dL
  TP: 6.5 g/dL
  gamma-GTP: 1 IU/L
240 mg/kg, 72 h, dose level Middle, time 3 day
  TERMINAL_BW: 216.9 g
